According to patent US20220071993A1, “A VILAZODONE SOLID DISPERSION AND PREPARATION METHOD THEREOF” (SUNSHINE LAKE PHARMA CO., LTD., priority 2018, published 2022):
Structures can show the parent of a compound that is named as a salt. Where two headings read alike, the source gives them in different places.

How the values were obtained:
[1] = cited from earlier work
[2] = Dissolution of vilazodone in different organic solvents; type: physicochemical; conditions: 10 mg/ml, sonicated 30 min, room temperature 24 h
Procedure: (§1) 10 mg of vilazodone hydrochloride solid powder was put into a 4 ml EP tube. 1 ml of dichloromethane, methanol, ethanol, acetone and ethyl acetate was added to each tube separately, and the tubes were sonicated in a water bath for 30 minutes. The dissolution of the powder was observed; after the samples were placed at room temperature for 24 h, the appearance of the samples was observed and whether there was precipitation was noted.

[3] = Dissolution of vilazodone hydrochloride in methanol aqueous solution; type: physicochemical; conditions: 30 mg
Procedure: (§2) 30 mg of vilazodone hydrochloride solid powder was put into a 10 ml EP tube 3 ml of methanol aqueous solution of different concentrations was added to each tube separately, and the tubes were sonicated in a water bath for 30 minutes. The dissolution of the powders was observed; if the powder was dissolved quickly, a small amount of powder was continued to add to increase the concentration of the sample and was dissolved ultrasonically; finally, the solution samples were placed at room temperature for 24 hours to observe whether there was precipitation.

[4] = Dissolution of vilazodone hydrochloride in ethanol aqueous solution; type: physicochemical; conditions: 10 mg
Procedure: as §1, with “ethanol aqueous solution of different concentrations” for “dichloromethane, methanol, ethanol, acetone and ethyl acetate”

[5] = Dissolution of vilazodone hydrochloride in acetone aqueous solution; type: physicochemical; conditions: 10 mg
Procedure: as §2, with “10 mg” for “30 mg”, “a 4” for “a 10”, “EP tube. 1” for “EP tube 3”, “of acetone” for “of methanol”, “the powder” for “the powders”

Phenomenon (dissolution) ([2]; Acetone): Insoluble, a little of precipitation
Phenomenon (dissolution) ([2]; Dichloromethane): Insoluble, a lot of precipitation
Phenomenon (dissolution) ([2]; Ethanol): Insoluble, a little of precipitation
Phenomenon (dissolution) ([2]; Ethyl acetate): Insoluble, a lot of precipitation
Phenomenon (dissolution) ([2]; Methanol): Insoluble, a little of precipitation
Result (dissolution) ([3]; Methanol 0.3 ml + Water 2.7 ml): Insoluble, a lot of precipitation
Result (dissolution) ([3]; Methanol 0.6 ml + Water 2.4 ml): Insoluble, a lot of precipitation
Result (dissolution) ([3]; Methanol 0.9 ml + Water 2.1 ml): Insoluble, a lot of precipitation
Result (dissolution) ([3]; Methanol 1.2 ml + Water 1.8 ml): Insoluble, a lot of precipitation
Phenomenon (dissolution) ([4]; Ethanol 0.1 ml + Water 0.9 ml): Insoluble, a lot of precipitation
Phenomenon (dissolution) ([4]; Ethanol 0.2 ml + Water 0.8 ml): Insoluble, a lot of precipitation
Phenomenon (dissolution) ([4]; Ethanol 0.3 ml + Water 0.7 ml): Insoluble, a lot of precipitation
Phenomenon (dissolution) ([4]; Ethanol 0.4 ml + Water 0.6 ml): Dissolved, precipitate after 1 day
Phenomenon (dissolution) ([4]; Ethanol 0.6 ml + Water 0.4 ml): Dissolved, precipitate after 1 day
Phenomenon (dissolution) ([4]; Ethanol 0.8 ml + Water 0.2 ml): Insoluble, a lot of precipitation
Phenomenon (dissolution) ([4]; Ethanol 0.9 ml + Water 0.1 ml): Insoluble, a lot of precipitation
Phenomenon (dissolution) ([5]; Acetone 0.1 ml + Water 0.9 ml): Insoluble, a lot of precipitation
Phenomenon (dissolution) ([5]; Acetone 0.2 ml + Water 0.8 ml): Insoluble, a lot of precipitation
Phenomenon (dissolution) ([5]; Acetone 0.3 ml + Water 0.7 ml): Insoluble, a lot of precipitation
Phenomenon (dissolution) ([5]; Acetone 0.9 ml + Water 0.1 ml): Insoluble, a lot of precipitation
SMILES: N#Cc1ccc2[nH]cc(CCCCN3CCN(c4ccc5oc(C(N)=O)cc5c4)CC3)c2c1 [vilazodone hydrochloride, 5-{4-[4-(5-cyano-3-indole)-butyl]-1-piperazinyl}-coumarone-2-carboxamide]
solubility ([1]; environment with pH 3.1): a certain solubility
solubility ([1]; gastric juice (pH 1.2) and intestinal juice (pH 4.5 to 6.8)): poor solubility
